Holding throughout (type): cell-based, Pseudomonas aeruginosa
Assay [1] has as its system wt P. aeruginosa biofilm. In words: biofilm inhibition, microtiter tray, crystal violet staining. As to conditions: 8 hours. The method, then: Briefly, using a microtiter tray format, a 20 hour old culture of wt P. aeruginosa was diluted 1000 fold into 100 μL ABtrace media aliquots supplemented with 0.2% glucose, 0.5% Cas amino acids, 1 μM FeCl3, 0.2% DMSO and varying concentrations (100 μM, 50 μM, 25 μM, 12μM, 6 μM or 0 μM) of either H6-335-P1, H6-335, H6-335-SAR compound 26 or H6-335-SAR compound 25. The resulting microtiter trays were sealed with an air permeable lid, and biofilm cultures were grown on a rotary shaker at 37° C. and 160 RPM for 8 hours. After this, culture-supernatants were discarded and the remaining biomass was stained with crystal violet (Groizeleau et al., 2016). Finally, the amount of Crystal violet bound to the biofilm present in each well was plotted as a function of H6-335-P1, H6-335, H6-335-SAR compound 26 and H6-335-SAR compound 25 in the following concentrations: 100 μM, 50 μM, 25 μM, 12 μM, 6 μM or 0 μM (FIG. 4A). Means and standard deviations (bars) in FIG. 4A represents 4 biological replicates (n=4).

The subject of assay [2] is wt P. aeruginosa biofilm. Briefly: dispersal of 8 hour old biofilm, crystal violet staining. The method, then:
Using a 96 well microtiter tray format, a 20 hour old culture of wt P. aeruginosa was diluted 1000 fold into 100 μL ABtrace media aliquots supplemented with 0.2% glucose, 0.5% Cas amino acids and 1 μM FeCl3. The resulting microtiter trays were sealed with an air permeable lid and the biofilm cultures were incubated at 37° C. on a rotary shaker at 160 RPM.
After this, the culture supernatants were discarded and the remaining biomass was stained with crystal violet (Groizeleau et al. 2016). Finally, the amount of Crystal violet bound to the biofilm present in each well was plotted as a function of H6-335-P1, H6-335, H6-335-SAR compound 26 and H6-335- SAR compound 25 in the following concentrations: 100 μM, 50 μM, 25 μM, 12 μM or 0 μM (FIG. 4D). Means and standard deviations (bars) in FIG. 4D represents 5 biological replicates (n=5)

For assay [3], the system named is PA01(wspF)::araC-PBAD-bifA+. Briefly: biofilm formation with arabinose inducible bifA expression. As to conditions: 6 to 100 μM with 0.05% or 0.2% arabinose, 18 hours, FIG. 6C. On the procedure: Using a 96 well microtiter platform, overnight cultures of the strains were diluted 200 fold into 100 uL ABTrace media aliquots (Pamp and Tolker-Nielsen, 2007) supplemented with 0.2% glucose, 0.5% casa amino acids, 1 μM FeCl3, 1% DMSO and varying concentrations of arabinose and H6-335-P1.
The resulting microtiter plates were sealed with air permeable lids and biofilm cultures were grown at 37° C. on a rotary shaker (280 RPM) for 18 hours, after which the culture supernatants were discarded and biofilm present in the wells were quantified by crystal violet staining (Groizeleau et al., 2016).
Finally, biofilm prevailing following treatment with varying concentrations of arabinose and H6-335-P1 were plotted. The amounts of supplemented arabinose (0% A, 0.05% A or 0.2% A) and H6-335-P1 (100 μM, 50 μM, 25 μM, 12 μM, 6 μM or 0 μM) are indicated below the X-axis of FIG. 6C. Numbers above the bars in FIG. 6 represents the crystal violet measurements.

As to `N=C1NN=C(N)/C1=N/Nc1ccccc1F` [H6-335-P1, 4-[(2-fluorophenyl) hydrazinylidene]pyrazole-3,5-diamine], the “reduction of biofilm formation” value in the assay on wt P. aeruginosa biofilm [1] (100 μM, compared to untreated (DMSO control)) is 98%. Also, the “biofilm inhibition (dose-response, words)” value with wt P. aeruginosa biofilm [1] (6 to 100 μM, FIG. 4A) is “distinct concentration dependent biofilm inhibition”. In addition, in the assay on wt P. aeruginosa biofilm [2] (100 μM, within a 2 hours period), the “dispersal of an 8 hour old biofilm” value is listed as 88%. Also, the “rank of biofilm dispersing potency among the four tested compounds” value in the assay with wt P. aeruginosa biofilm [2] (12 to 100 μM, two hours of dispersal, FIG. 4D) is given as “most potent biofilm dispersing compound”. Moreover, the “inhibition of biofilm formation in arabinose stimulated (bifA induced) cultures” value in assay [3] is reported as “synergistic inhibitory effect on biofilm formation”.

The values above are taken from patent publication US20230321043A1, “COMPOUNDS HAVING PSEUDOMONAS ANTI-BIOFILM PROPERTIES” (Københavns Universitet, priority 2020, published 2023).
